What was measured:
CYP2D6 = CYP2D6 (Homo sapiens, UniProt P10635); assay: CYP inhibition cocktail assay in pHLM, CYP2D6 (dextromethorphan)
Experimental: (§1) A modified dual-cocktail based method (Dinger et al. [2014b]) was used. Substrate cocktail A consisted of 8.9 µM dextromethorphan (CYP2D6), 86 µM testosterone (CYP3A4), 3.5 µM diclofenac (CYP2C9), and 12 µM phenacetin (CYP1A2). Substrate cocktail B included 30 µM bupropion (CYP2B6), 2 µM amodiaquine (CYP2C8) and 21 µM omeprazole (CYP2C19). Substrate concentrations were near their respective Michaelis–Menten constant (Km) values (Dinger et al. [2014a]) and all concentrations are final. Enzyme inhibition was investigated using a positive control, a test group, a control group, an interference group, and a negative control. In the test group, specific inhibitors were replaced by MDPM (20 µM). Instead of inhibitors, phosphate buffer was used in the control group. Enzymes were replaced with phosphate buffer in the negative control group. The interference group was incubated like the control group, but the reaction was stopped with 20 µM MDPM in acetonitrile, also containing 2.5 µM trimipramine-d3. All groups were incubated with a NADPH-regenerating system, consisting of 5 mM isocitrate, 2 U/mL isocitrate dehydrogenase, 5 mM Mg^2+, and 1.2 mM NADP^+. Further, substrate cocktail A or B, 90 mM phosphate buffer (pH 7.4), and 200 U/mL superoxide dismutase were added to each group. […] All groups were preincubated for 10 min at 37 °C. Then, pHLM (0.4 mg microsomal protein/mL) was added to each group except the negative control. Incubations were done for 15 min at 37 °C. Therefore, 50 µL of acetonitrile (− 20 °C) containing 2.5 µM trimipramine-d3 as internal standard was added. Incubations were done in triplicates and organic solvent in the incubation mixture was below 1% (Chauret et al. [1998]). Afterwards the samples were vortexed and centrifuged for 2 min at 18,407×g. 70 µL of the supernatant were transferred to autosampler vials and 10 µL were injected onto the LC-HRMS/MS system. Enzyme inhibition was evaluated by metabolite formation. […] The following settings were used: unpaired; one-tailed; significance level, 0.05; confidence intervals, 99%.

CYP2C8 = target: T1, CYP2C8 (Homo sapiens, UniProt P10632); assay: CYP inhibition cocktail assay in pHLM, CYP2C8 (amodiaquine); conditions: inhibitor 20 µM
T1 sequence (P10632 1-490): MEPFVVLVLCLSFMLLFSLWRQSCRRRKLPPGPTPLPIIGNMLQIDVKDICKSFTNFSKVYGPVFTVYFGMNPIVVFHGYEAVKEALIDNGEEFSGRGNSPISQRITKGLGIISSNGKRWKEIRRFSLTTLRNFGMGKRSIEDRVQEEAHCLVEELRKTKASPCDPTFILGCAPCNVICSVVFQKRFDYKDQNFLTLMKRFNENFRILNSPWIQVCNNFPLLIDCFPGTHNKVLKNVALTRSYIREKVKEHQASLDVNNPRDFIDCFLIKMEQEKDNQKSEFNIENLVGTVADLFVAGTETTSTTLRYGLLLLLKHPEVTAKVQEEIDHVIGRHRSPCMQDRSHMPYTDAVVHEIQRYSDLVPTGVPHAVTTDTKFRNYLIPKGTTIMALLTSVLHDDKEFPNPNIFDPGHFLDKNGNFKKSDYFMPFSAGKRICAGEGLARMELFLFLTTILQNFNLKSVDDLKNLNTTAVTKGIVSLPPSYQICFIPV
Experimental: as §1

CYP1A2 = target: T2, CYP1A2 (Homo sapiens, UniProt P05177); assay: CYP inhibition cocktail assay in pHLM, CYP1A2 (phenacetin)
T2 sequence (P05177 1-516): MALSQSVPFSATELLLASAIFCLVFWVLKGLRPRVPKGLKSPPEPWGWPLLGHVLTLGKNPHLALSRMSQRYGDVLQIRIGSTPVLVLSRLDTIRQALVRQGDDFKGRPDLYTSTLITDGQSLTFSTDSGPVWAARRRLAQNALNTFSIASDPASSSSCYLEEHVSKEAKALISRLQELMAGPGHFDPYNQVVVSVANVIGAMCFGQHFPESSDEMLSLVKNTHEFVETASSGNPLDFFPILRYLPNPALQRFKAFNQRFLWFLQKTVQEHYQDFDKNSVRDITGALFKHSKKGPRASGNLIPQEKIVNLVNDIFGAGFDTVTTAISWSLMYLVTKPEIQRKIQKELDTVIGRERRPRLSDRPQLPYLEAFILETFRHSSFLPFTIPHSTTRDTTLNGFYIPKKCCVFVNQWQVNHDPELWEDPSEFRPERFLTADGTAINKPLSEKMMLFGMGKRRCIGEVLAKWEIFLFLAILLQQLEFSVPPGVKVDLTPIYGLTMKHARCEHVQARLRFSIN
Experimental: A modified dual-cocktail based method (Dinger et al. [2014b]) was used. Substrate cocktail A consisted of 8.9 µM dextromethorphan (CYP2D6), 86 µM testosterone (CYP3A4), 3.5 µM diclofenac (CYP2C9), and 12 µM phenacetin (CYP1A2). Substrate cocktail B included 30 µM bupropion (CYP2B6), 2 µM amodiaquine (CYP2C8) and 21 µM omeprazole (CYP2C19). Substrate concentrations were near their respective Michaelis–Menten constant (Km) values (Dinger et al. [2014a]) and all concentrations are final. Enzyme inhibition was investigated using a positive control, a test group, a control group, an interference group, and a negative control. In the test group, specific inhibitors were replaced by MDPM (20 µM). Instead of inhibitors, phosphate buffer was used in the control group. Enzymes were replaced with phosphate buffer in the negative control group. The interference group was incubated like the control group, but the reaction was stopped with 20 µM MDPM in acetonitrile, also containing 2.5 µM trimipramine-d3. All groups were incubated with a NADPH-regenerating system, consisting of 5 mM isocitrate, 2 U/mL isocitrate dehydrogenase, 5 mM Mg^2+, and 1.2 mM NADP^+. Further, substrate cocktail A or B, 90 mM phosphate buffer (pH 7.4), and 200 U/mL superoxide dismutase were added to each group. […] All groups were preincubated for 10 min at 37 °C. […] Enzyme inhibition was evaluated by metabolite formation. […]

CYP2B6 = target: T3, CYP2B6 (Homo sapiens, UniProt P20813); assay: CYP inhibition cocktail assay in pHLM, CYP2B6 (bupropion); conditions: inhibitor 20 µM
T3 sequence (P20813 1-491): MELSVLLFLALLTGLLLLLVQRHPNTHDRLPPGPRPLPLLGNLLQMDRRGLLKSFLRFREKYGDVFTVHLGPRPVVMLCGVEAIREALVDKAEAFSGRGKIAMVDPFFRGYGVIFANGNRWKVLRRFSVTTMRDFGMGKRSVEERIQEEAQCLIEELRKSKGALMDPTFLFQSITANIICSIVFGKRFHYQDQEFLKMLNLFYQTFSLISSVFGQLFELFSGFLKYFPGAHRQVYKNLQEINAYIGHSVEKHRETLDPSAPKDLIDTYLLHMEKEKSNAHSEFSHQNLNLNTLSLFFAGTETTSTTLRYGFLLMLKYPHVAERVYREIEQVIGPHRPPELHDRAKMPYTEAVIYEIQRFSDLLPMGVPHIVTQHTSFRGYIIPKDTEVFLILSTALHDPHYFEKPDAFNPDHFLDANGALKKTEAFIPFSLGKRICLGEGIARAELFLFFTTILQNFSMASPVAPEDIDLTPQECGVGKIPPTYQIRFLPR
Experimental: as §1

Chain of CYP2D6 (P10635 whole entry): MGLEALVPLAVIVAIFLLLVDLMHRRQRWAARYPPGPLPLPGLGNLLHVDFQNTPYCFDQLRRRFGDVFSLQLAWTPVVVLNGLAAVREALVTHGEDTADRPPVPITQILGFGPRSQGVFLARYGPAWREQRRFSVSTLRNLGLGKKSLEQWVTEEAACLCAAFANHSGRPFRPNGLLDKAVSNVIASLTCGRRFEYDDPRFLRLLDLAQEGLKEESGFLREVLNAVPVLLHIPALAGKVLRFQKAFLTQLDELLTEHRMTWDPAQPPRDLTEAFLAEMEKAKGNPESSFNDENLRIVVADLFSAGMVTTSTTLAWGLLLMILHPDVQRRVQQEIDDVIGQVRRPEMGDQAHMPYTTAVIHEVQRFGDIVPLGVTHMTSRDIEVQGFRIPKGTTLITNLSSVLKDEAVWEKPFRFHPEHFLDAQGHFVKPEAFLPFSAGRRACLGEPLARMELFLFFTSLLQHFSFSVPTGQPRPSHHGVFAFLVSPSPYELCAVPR

Work on `CC1NCCOC1c1ccc2c(c1)OCO2` (centres unmarked) [MDPM, 2-(1,3-benzodioxol-5-yl)-3-methylmorpholine] yielded an inhibition at 15 min, 20 µM (CYP2D6; human, pH 7.4) of 77%, a CYP2D6 metabolite formation (CYP2D6; inhibitor 20 µM, dextromethorphan 8.9 µM, pHLM 0.4 mg/mL, 15 min, control without inhibitor = 100%) of 23% and a CYP2C8 metabolite formation (CYP2C8; amodiaquine 2 µM, pHLM 0.4 mg/mL, 15 min, control without inhibitor = 100%) of 105%. The “inhibition of CYP2C8” value (CYP2C8; amodiaquine, pHLM, t-test versus control) was “no significant inhibition”, the inhibition at 15 min, 20 µM (CYP1A2; human, pooled human liver microsomes (pHLM), pH 7.4, probe phenacetin (12 µM)) was 39% and the CYP1A2 metabolite formation (CYP1A2; inhibitor 20 µM, phenacetin 12 µM, pHLM 0.4 mg/mL, 15 min, control without inhibitor = 100%) was 61%. For the same compound, the CYP2B6 metabolite formation (CYP2B6; bupropion 30 µM, pHLM 0.4 mg/mL, 15 min, control without inhibitor = 100%) was 113% and the “inhibition of CYP2B6” value (CYP2B6; bupropion, pHLM, t-test versus control) was “no significant inhibition”.
